This note sets out measurements from PubChem BioAssay (NCI).

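In this assay, cells in 96-well plates receive the compound at five concentrations for 48 hours. Endpoints are linearly interpolated between the surrounding concentrations. TGI is the concentration that stops growth completely.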

Test systems include SN12C renal; NCI/ADR-RES ovarian; M14 melanoma; MDA-MB-435; SK-MEL-5 melanoma; EKVX NSCLC; SR leukemia; SK-MEL-2 melanoma; DU-145 prostate; OVCAR-5 ovarian; ACHN renal; KM12 colon; HCT-116 colon.
Holding throughout (test): NCI anticancer screen, dose series, 48 h

As to `O=S(=O)(O)c1cc(S(=O)(=O)O)c2c(N=Nc3cccc4ccccc34)c(O)ccc2c1`, the TGI in the assay with SN12C renal, in the assay with NCI/ADR-RES ovarian, in the assay with M14 melanoma, with MDA-MB-435, in the assay on SK-MEL-5 melanoma and in the assay on EKVX NSCLC was > 100 µM in each case. In addition, the TGI in the assay with SR leukemia, in the assay with SK-MEL-2 melanoma, with DU-145 prostate, in the assay on OVCAR-5 ovarian, in the assay with ACHN renal and in the assay with KM12 colon was > 100 µM in each case. For the same compound, the TGI with HCT-116 colon was > 100 µM.
For the compound `COC(=O)CCc1ccc2c(c1)CCC2`, the TGI in the assay with SN12C renal, with NCI/ADR-RES ovarian, in the assay on M14 melanoma, in the assay on MDA-MB-435, in the assay with SK-MEL-5 melanoma and in the assay with SR leukemia was > 100 µM in each case. In addition, the TGI in the assay with SK-MEL-2 melanoma, in the assay on DU-145 prostate, in the assay on OVCAR-5 ovarian, with ACHN renal, with KM12 colon and in the assay with HCT-116 colon was > 100 µM throughout.
For `CC1(C)C(O)c2ccccc2OC1N1CCN(C2Oc3ccccc3C(O)C2(C)C)CC1` (centres undefined), the TGI in the assay with SN12C renal, in the assay with NCI/ADR-RES ovarian, with M14 melanoma, with MDA-MB-435, in the assay with SK-MEL-5 melanoma and in the assay with EKVX NSCLC was > 100 µM throughout. For the same compound, the TGI with SR leukemia, in the assay with DU-145 prostate, in the assay with OVCAR-5 ovarian, with ACHN renal, in the assay with KM12 colon and in the assay with HCT-116 colon was > 100 µM throughout.
Regarding `CC(=O)c1ccc(-c2oc(-c3ccccc3)cc2-c2ccc3c(c2)OCO3)s1`, the TGI in the assay on SN12C renal was > 100 µM; in the assay on NCI/ADR-RES ovarian it was > 100 µM; in the assay on M14 melanoma, > 100 µM; in the assay on MDA-MB-435 it was 6.08 µM; with SK-MEL-5 melanoma it was > 100 µM; in the assay with EKVX NSCLC, > 100 µM. The TGI in the assay with SR leukemia, with DU-145 prostate, in the assay on OVCAR-5 ovarian, in the assay with ACHN renal and in the assay with HCT-116 colon was > 100 µM throughout.
On to `CO/C(=N/N1CC1C(F)(F)F)c1ccncc1` (centres undefined), for which the TGI with SN12C renal, in the assay with NCI/ADR-RES ovarian, in the assay on M14 melanoma, in the assay on MDA-MB-435, with SK-MEL-5 melanoma and with SR leukemia was > 100 µM each time. Also, the TGI in the assay with SK-MEL-2 melanoma, in the assay on DU-145 prostate, with OVCAR-5 ovarian, in the assay on KM12 colon and in the assay with HCT-116 colon was > 100 µM each time.
Take `O=C(O)C(Cc1ccc(O)cn1)NC(=O)C(F)(F)F` (centres undefined): the TGI in the assay with SN12C renal, in the assay with NCI/ADR-RES ovarian, with MDA-MB-435, in the assay with SK-MEL-5 melanoma, in the assay on EKVX NSCLC and in the assay on SR leukemia was > 100 µM each time. Moreover, the TGI with DU-145 prostate, in the assay on OVCAR-5 ovarian, in the assay with ACHN renal, in the assay with KM12 colon and with HCT-116 colon was > 100 µM throughout.
As to `COc1ccc(C2Oc3c(cccc3OC)C=C2[N+](=O)[O-])cc1OC` (centres undefined), the TGI in the assay with NCI/ADR-RES ovarian is 53.4 µM; in the assay with M14 melanoma, 19.6 µM; in the assay with MDA-MB-435, 8.3 µM; in the assay on SK-MEL-5 melanoma it was 16.1 µM; with EKVX NSCLC, > 100 µM; with SR leukemia it was > 100 µM. Besides, the TGI with DU-145 prostate was > 100 µM; with OVCAR-5 ovarian it was 51.4 µM; in the assay with ACHN renal, 29.3 µM; with KM12 colon, 34 µM; in the assay on HCT-116 colon it was 17.4 µM.
For `COC(=O)[C@@H]1O[C@]12C(CO[Si](C)(C)C(C)(C)C)OC(n1ccc(=O)[nH]c1=O)C2O[Si](C)(C)C(C)(C)C` (some centres undefined), the TGI in the assay with SN12C renal is 85.7 µM; in the assay with NCI/ADR-RES ovarian, > 100 µM; with M14 melanoma, 30.7 µM; in the assay with MDA-MB-435, 58.7 µM; in the assay with SK-MEL-5 melanoma, 51.6 µM; with EKVX NSCLC, 62.6 µM. The TGI was 33.2 µM in the assay on SK-MEL-2 melanoma; 61.1 µM with DU-145 prostate; 77.5 µM with OVCAR-5 ovarian; 54.1 µM in the assay with ACHN renal; 77.9 µM in the assay on KM12 colon; > 100 µM with HCT-116 colon.
For the compound `CCOC(=O)c1ccc2c(c1)nc1n2C(c2c(F)cccc2F)SC1` (centres undefined), the TGI in the assay on SN12C renal was > 100 µM; in the assay on NCI/ADR-RES ovarian, 44.9 µM; in the assay on M14 melanoma, > 100 µM; in the assay with MDA-MB-435, > 100 µM; with SK-MEL-5 melanoma, 26.1 µM; in the assay with SR leukemia, > 100 µM. The TGI in the assay on SK-MEL-2 melanoma was 38.4 µM; in the assay on DU-145 prostate, > 100 µM; in the assay with OVCAR-5 ovarian it was > 100 µM; with ACHN renal, > 100 µM; in the assay on KM12 colon, 37.7 µM; in the assay with HCT-116 colon, 34 µM.
With `CC(C)[Si](OC12CCC(CC1O)CC2C(=O)O)(C(C)C)C(C)C` (centres undefined), the TGI in the assay with SN12C renal was > 100 µM; with NCI/ADR-RES ovarian, 33.6 µM; in the assay with M14 melanoma it was 29.3 µM; in the assay on MDA-MB-435 it was 31.8 µM; in the assay on SK-MEL-5 melanoma, 51.6 µM; in the assay on SR leukemia, > 100 µM. Moreover, the TGI was determined as 27.7 µM in the assay with SK-MEL-2 melanoma; 33.7 µM with DU-145 prostate; 30 µM with OVCAR-5 ovarian; 29.1 µM in the assay on ACHN renal; 26.2 µM with KM12 colon; 23.8 µM in the assay on HCT-116 colon.
Turning to `COC(=O)c1cc(Br)c(C(=O)C(Cl)(Cl)Cl)[nH]1`, the TGI in the assay on SN12C renal, in the assay with NCI/ADR-RES ovarian, in the assay on M14 melanoma, in the assay with MDA-MB-435, in the assay on SK-MEL-5 melanoma and in the assay with EKVX NSCLC was > 100 µM in each case. Further, the TGI in the assay on SK-MEL-2 melanoma, in the assay on DU-145 prostate, in the assay on OVCAR-5 ovarian, with ACHN renal, in the assay with KM12 colon and in the assay on HCT-116 colon was > 100 µM throughout.
